Source: US20210000727A1, “DITHIAZOCANE COMPOUNDS FOR THE COSMETIC USE THEREOF” (L'OREAL, priority 2017, published 2021)

Legend:
[1] = test system: normal human melanocytes; test: Depigmenting activity (reduction of melanin production) in normal human melanocytes in vitro; type: cell-based; conditions: Melanocyte, 72 hours incubation, optical density of melanin, maximum concentration tested 200 μM, read-out: IC50 (concentration at which a 50% decrease in melanin synthesis is achieved)
Description: The measurement of the depigmenting activity (reduction of melanin production) of compounds of formula (I) was performed by assaying normal human melanocytes in vitro as follows.
First of all, normal human melanocytes are cultured and dispensed into wells. After 24 hours, the culture medium was replaced with a medium containing compounds of formula (I) to be evaluated. The cells were incubated 72 hours before measurement of the final optical density, which measures the amount of melanin produced by the melanocytes. A dose effect is performed using a wide concentration range of the compounds evaluated. Thus, by making the concentrations and the melanin measurements correspond, it is possible to determine an IC50 in μM: concentration at which a 50% decrease in melanin synthesis is achieved.
Various test campaigns were conducted and the results collated in the table below.

[2] = test system: coculture of keratinocytes and melanocytes; test: Coculture experiment: melanogenesis-modulating effect and cytotoxicity; type: cell-based; conditions: for IC50: melanin optical density, read-out: IC50 (concentration for which 50% of the melanin synthesis is inhibited)
Description: The melanogenesis-modulating effect of compound 1 was measured according to the method described in patent FR-A-2734825, and also in the article by R. Schmidt, P. Krien and M. Régnier, Anal. Biochem., 235(2), 113-18, 1996. This test is performed on a coculture of keratinocytes and melanocytes.
The following were determined for the test compound: • the cytotoxicity, • the inhibitory activity on melanin synthesis, by estimating the melanin optical density.
The IC50 values (concentration for which 50% of the melanin synthesis is inhibited) were determined.

[3] = test system: pigmented reconstructed epidermis; test: Depigmenting activity on pigmented reconstructed epidermis (melanin quantified by image analysis, Fontana Masson); type: cell-based, human; conditions: 300 μM in DMSO, control DMSO, Mann-Whitney test, pValue<0.05
Description: Compositions comprising 300 μM of compound 1 in DMSO were applied to samples of pigmented reconstructed epidermis (cf. EP 1 878 790). The control is DMSO.
The melanin was quantified by image analysis on histological slices after staining with Fontana Masson dye. Each sample of coloured epidermis is photographed over its entire length using a camera connected to a microscope. The melanin is thresholded and the number of melanin pixels is measured in each field using automated image analysis software. A non-parametric statistical test is performed in order to determine the significance of the measurements (Mann-Whitney test, see FIG. 1).
The pigmented reconstructed epidermis standard study model was published by: Regnier M, Duval C, Galey J B, Philippe M, Lagrange A, Tuloup R, Schmidt R, Cellular and Molecular Biology, 1999, 45, 7, 969-980: “Keratinocyte-Melanocyte co-cultures and pigmented reconstructed human epidermis: models to study modulation of melanogenesis”.

Row | Structure (SMILES) | IC50 [1] [µM] | cytotoxicity [2] | IC50 [2] [µM] | depigmenting activity (melanin quantified by image analysis) [3]
1 | COCCOCCOC(=O)C1CSSCC(C)(C)C(=O)N1 (stereo not shown) [Compound 10′, 2-(2-methoxyethoxy)ethyl 7,7-dimethyl-6-oxo-1,2,5-dithiazocane-4-carboxylate] | 5.26 | non-cytotoxic | 7.62 | 
2 | COC(=O)[C@@H]1CSSCC(C)(C)C(=O)N1 [Compound 2, methyl 7,7-dimethyl-6-oxo-1,2,5-dithiazocane-4(R)-carboxylate] | 13.6 | non-cytotoxic | 0.74 | 
3 | CC1(C)CSSCC(C(=O)OCC(O)CO)NC1=O (stereo not shown) [Compound 18′, 2,3-dihydroxypropyl 7,7-dimethyl-6-oxo-1,2,5-dithiazocane-4-carboxylate] | 9.8 |  |  | 
4 | CCOC(=O)C1CSSCC(C)(C)C(=O)N1 (stereo not shown) [Compound 5′, ethyl 7,7-dimethyl-6-oxo-1,2,5-dithiazocane-4-carboxylate] |  | non-cytotoxic | 0.79 | 
5 | COCC(C)OCC(C)OCC(C)OC(=O)C1CSSCC(C)(C)C(=O)N1 (stereo not shown) [Compound 11′, 1-({1-[(1-methoxypropan-2-yl)oxy]propan-2-yl}oxy)propan-2-yl 7,7-dimethyl-6-oxo-1,2,5-dithiazocane-4-carboxylate] | 10.7 |  |  | 
6 | CC1(C)CSSCC(C(=O)NCC(=O)O)NC1=O (stereo not shown) [Compound 12′, N-[(7,7-dimethyl-6-oxo-1,2,5-dithiazocan-4-yl)carbonyl]glycine] | 63.8 |  |  | 
7 | CC1(C)CSSCC(C(=O)NCCO)NC1=O (stereo not shown) [Compound 7′, N-(2-hydroxyethyl)-7,7-dimethyl-6-oxo-1,2,5-dithiazocane-4-carboxamide] | < 0.4 | non-cytotoxic | 1.04 | 
8 | CC1(C)CSSC[C@@H](C(=O)O)NC1=O [Compound 1, 7,7-dimethyl-6-oxo-1,2,5-dithiazocane-4-(R)-carboxylic acid] | 62.5 | non-cytotoxic | 9.6 | Significant depigmenting activity
9 | CN(C)C(=O)C1CSSCC(C)(C)C(=O)N1 (stereo not shown) [Compound 4′, N,N,7,7-tetramethyl-6-oxo-1,2,5-dithiazocane-4-carboxamide] | 4.23 |  |  | 
10 | CCCCCCCNC(=O)C1CSSCC(C)(C)C(=O)N1 (stereo not shown) [Compound 13′, N-heptyl-7,7-dimethyl-6-oxo-1,2,5-dithiazocane-4-carboxamide] | 0.66 |  |  | 
11 | CC(C)OC(=O)C1CSSCC(C)(C)C(=O)N1 (stereo not shown) [Compound 6′, propan-2-yl 7,7-dimethyl-6-oxo-1,2,5-dithiazocane-4-carboxylate] | 1.9 | non-cytotoxic | 1.57 | 
12 | CCOC(=O)C(Cc1ccccc1)NC(=O)C1CSSCC(C)(C)C(=O)N1 (stereo not shown) [Compound 9′, ethyl N-[(7,7-dimethyl-6-oxo-1,2,5-dithiazocan-4-yl)carbonyl]phenylalaninate] | 20.8 |  |  | 
13 | CCOC(=O)CNC(=O)C1CSSCC(C)(C)C(=O)N1 (stereo not shown) [Compound 8′, ethyl N-[(7,7-dimethyl-6-oxo-1,2,5-dithiazocan-4-yl)carbonyl]glycinate] | 0.87 | non-cytotoxic | 1.23 | 
14 | CC1(C)CSSCC(C(N)=O)NC1=O (stereo not shown) [Compound 3′, 7,7-dimethyl-6-oxo-1,2,5-dithiazocane-4-carboxamide] | 2.35 |  |  | 
